According to patent US20040171566A1, “Antisense modulation of p38 mitogen activated protein kinase expression” (priority 1999, published 2004):
e = 2'-O-(2-methoxyethyl) (MOE); d = 2'-deoxy (DNA)

Key:
mouse p38α mRNA = assay: Mouse p38α mRNA levels in bEND.3 cells, quantitative real-time PCR; type: cell-based; set-up: % Inhib. mouse p38α: concentration or dose not given beside the values; conditions: bEND.3 cells, mRNA by quantitative real-time PCR, average of two experiments
Text: (§1) Quantitation of p38α mRNA levels was accomplished by real-time quantitative PCR using the ABI PRISM™ 7600, 7700, or 7900 Sequence Detection System (PE-Applied Biosystems, Foster City, Calif.) according to manufacturer's instructions. This is a closed-tube, non-gel-based, fluorescence detection system which allows high-throughput quantitation of polymerase chain reaction (PCR) products in real-time. As opposed to standard PCR in which amplification products are quantitated after the PCR is completed, products in real-time quantitative PCR are quantitated as they accumulate. This is accomplished by including in the PCR reaction an oligonucleotide probe that anneals specifically between the forward and reverse PCR primers, and contains two fluorescent dyes. A reporter dye (e.g., FAM or JOE, obtained from either PE-Applied Biosystems, Foster City, Calif., Operon Technologies Inc., Alameda, Calif. or Integrated DNA Technologies Inc., Coralville, Iowa) is attached to the 5′ end of the probe and a quencher dye (e.g., TAMRA, obtained from either PE-Applied Biosystems, Foster City, Calif., Operon Technologies Inc., Alameda, Calif. or Integrated DNA Technologies Inc., Coralville, Iowa) is attached to the 3′ end of the probe. When the probe and dyes are intact, reporter dye emission is quenched by the proximity of the 3′ quencher dye. During amplification, annealing of the probe to the target sequence creates a substrate that can be cleaved by the 5′-exonuclease activity of Taq polymerase. […] With each cycle, additional reporter dye molecules are cleaved from their respective probes, and the fluorescence intensity is monitored at regular intervals by laser optics built into the ABI PRISM™ Sequence Detection System. In each assay, a series of parallel reactions containing serial dilutions of mRNA from untreated control samples generates a standard curve that is used to quantitate the percent inhibition after antisense oligonucleotide treatment of test samples.
(§2) Prior to quantitative PCR analysis, primer-probe sets specific to the target gene being measured are evaluated for their ability to be “multiplexed” with a GAPDH amplification reaction. In multiplexing, both the target gene and the internal standard gene GAPDH are amplified concurrently in a single sample. In this analysis, mRNA isolated from untreated cells is serially diluted. Each dilution is amplified in the presence of primer-probe sets specific for GAPDH only, target gene only (“single-plexing”), or both (multiplexing). Following PCR amplification, standard curves of GAPDH and target mRNA signal as a function of dilution are generated from both the single-plexed and multiplexed samples. If both the slope and correlation coefficient of the GAPDH and target signals generated from the multiplexed samples fall within 10% of their corresponding values generated from the single-plexed samples, the primer-probe set specific for that target is deemed multiplexable. Other methods of PCR are also known in the art.
(§3) PCR reagents were obtained from Invitrogen Corporation, (Carlsbad, Calif.). […] The RT reaction was carried out by incubation for 30 minutes at 48° C. Following a 10 minute incubation at 95° C. to activate the PLATINUM® Taq, 40 cycles of a two-step PCR protocol were carried out: 95° C. for 15 seconds (denaturation) followed by 60° C. for 1.5 minutes (annealing/extension).
(§4) Gene target quantities obtained by real time RT-PCR are normalized using either the expression level of GAPDH, a gene whose expression is constant, or by quantifying total RNA using RiboGreen™ (Molecular Probes, Inc. Eugene, Oreg.). GAPDH expression is quantified by real time RT-PCR, by being run simultaneously with the target, multiplexing, or separately. Total RNA is quantified using RiboGreen™ RNA quantification reagent (Molecular Probes, Inc. Eugene, Oreg.). Methods of RNA quantification by RiboGreen™ are taught in Jones, L. J., et al, (Analytical Biochemistry, 1998, 265, 368-374). […]

rat p38α mRNA = assay: Rat p38α mRNA levels in NR-8383 cells, quantitative real-time PCR; type: cell-based; conditions: 300 nM oligonucleotide with FuGENE 6, 24 hours, mRNA by quantitative real-time PCR, average of two experiments
Text: as §1, §2, §3, §4

101755 (antisense CATCATCAGGGTCGTGGTAC; sugars from the 5' end e5 d10 e5, all phosphorothioate, methylation of C not given here) [compound 101755]
% Inhib. mouse p38α (mouse p38α mRNA): 84% | % Inhib. rat p38α (rat p38α mRNA): 74%

306022 (antisense GGCCAGAGACTGAATGTAGT; sugars from the 5' end e5 d10 e5, all phosphorothioate, methylation of C not given here) [compound 306022]
% Inhib. mouse p38α (mouse p38α mRNA): 78% | % Inhib. rat p38α (rat p38α mRNA): 53%

320103 (antisense AGCTCCTGCCGGTAGAACGT; sugars from the 5' end e5 d10 e5, all phosphorothioate, methylation of C not given here) [compound 320103]
% Inhib. mouse p38α (mouse p38α mRNA): 81% | % Inhib. rat p38α (rat p38α mRNA): 55%

320104 (antisense TCAAAAGCAGCACACACCGA; sugars from the 5' end e5 d10 e5, all phosphorothioate, methylation of C not given here) [compound 320104]
% Inhib. mouse p38α (mouse p38α mRNA): 82% | % Inhib. rat p38α (rat p38α mRNA): 42%

320105 (antisense CCCGTCTTTGTATCAAAAGC; sugars from the 5' end e5 d10 e5, all phosphorothioate, methylation of C not given here) [compound 320105]
% Inhib. mouse p38α (mouse p38α mRNA): 89% | % Inhib. rat p38α (rat p38α mRNA): 59%

320106 (antisense AACGGTCTCGACAGCTTCTT; sugars from the 5' end e5 d10 e5, all phosphorothioate, methylation of C not given here) [compound 320106]
% Inhib. mouse p38α (mouse p38α mRNA): 91% | % Inhib. rat p38α (rat p38α mRNA): 67%

320107 (antisense TAGGTCCTTTTGGCGTGAAT; sugars from the 5' end e5 d10 e5, all phosphorothioate, methylation of C not given here) [compound 320107]
% Inhib. mouse p38α (mouse p38α mRNA): 84% | % Inhib. rat p38α (rat p38α mRNA): 60%

320108 (antisense AGATGGGTCACCAGGTACAC; sugars from the 5' end e5 d10 e5, all phosphorothioate, methylation of C not given here) [compound 320108]
% Inhib. mouse p38α (mouse p38α mRNA): 61% | % Inhib. rat p38α (rat p38α mRNA): 57%

320109 (antisense GCCCCCATGAGATGGGTCAC; sugars from the 5' end e5 d10 e5, all phosphorothioate, methylation of C not given here) [compound 320109]
% Inhib. mouse p38α (mouse p38α mRNA): 69% | % Inhib. rat p38α (rat p38α mRNA): 34%

320110 (antisense TCATCAGTGTGCCGAGCCAG; sugars from the 5' end e5 d10 e5, all phosphorothioate, methylation of C not given here) [compound 320110]
% Inhib. mouse p38α (mouse p38α mRNA): 87% | % Inhib. rat p38α (rat p38α mRNA): 54%

320111 (antisense GTCAACAGCTCAGCCATGAT; sugars from the 5' end e5 d10 e5, all phosphorothioate, methylation of C not given here) [compound 320111]
% Inhib. mouse p38α (mouse p38α mRNA): 86% | % Inhib. rat p38α (rat p38α mRNA): 55%

320112 (antisense CGTTCTTCCGGTCAACAGCT; sugars from the 5' end e5 d10 e5, all phosphorothioate, methylation of C not given here) [compound 320112]
% Inhib. mouse p38α (mouse p38α mRNA): 93% | % Inhib. rat p38α (rat p38α mRNA): 58%

320113 (antisense ATCAATATGGTCTGTACCAG; sugars from the 5' end e5 d10 e5, all phosphorothioate, methylation of C not given here) [compound 320113]
% Inhib. mouse p38α (mouse p38α mRNA): 35% | % Inhib. rat p38α (rat p38α mRNA): 9%

320114 (antisense CTTAAAATGAGCTTCAACTG; sugars from the 5' end e5 d10 e5, all phosphorothioate, methylation of C not given here) [compound 320114]
% Inhib. mouse p38α (mouse p38α mRNA): 71% | % Inhib. rat p38α (rat p38α mRNA): 60%

320115 (antisense GGGTTCCAACGAGTCTTAAA; sugars from the 5' end e5 d10 e5, all phosphorothioate, methylation of C not given here) [compound 320115]
% Inhib. mouse p38α (mouse p38α mRNA): 67% | % Inhib. rat p38α (rat p38α mRNA): 53%

320116 (antisense TCAGAAGCTCAGCCCCTGGG; sugars from the 5' end e5 d10 e5, all phosphorothioate, methylation of C not given here) [compound 320116]
% Inhib. mouse p38α (mouse p38α mRNA): 95% | % Inhib. rat p38α (rat p38α mRNA): 73%

320117 (antisense GGAGATTTTCTTCAGAAGCT; sugars from the 5' end e5 d10 e5, all phosphorothioate, methylation of C not given here) [compound 320117]
% Inhib. mouse p38α (mouse p38α mRNA): 72% | % Inhib. rat p38α (rat p38α mRNA): 55%

320118 (antisense CAGACTCTGAGGAGATTTTC; sugars from the 5' end e5 d10 e5, all phosphorothioate, methylation of C not given here) [compound 320118]
% Inhib. mouse p38α (mouse p38α mRNA): 47% | % Inhib. rat p38α (rat p38α mRNA): 69%

320122 (antisense ATTTGCGAAGTTCATCTTCG; sugars from the 5' end e5 d10 e5, all phosphorothioate, methylation of C not given here) [compound 320122]
% Inhib. mouse p38α (mouse p38α mRNA): 73% | % Inhib. rat p38α (rat p38α mRNA): 48%

320123 (antisense CAATAAATACATTTGCGAAG; sugars from the 5' end e5 d10 e5, all phosphorothioate, methylation of C not given here) [compound 320123]
% Inhib. mouse p38α (mouse p38α mRNA): 79% | % Inhib. rat p38α (rat p38α mRNA): 32%

320124 (antisense GGATTGGCACCAATAAATAC; sugars from the 5' end e5 d10 e5, all phosphorothioate, methylation of C not given here) [compound 320124]
% Inhib. mouse p38α (mouse p38α mRNA): 29% | % Inhib. rat p38α (rat p38α mRNA): 31%

320125 (antisense GCTGCTGTGATCCTCTTATC; sugars from the 5' end e5 d10 e5, all phosphorothioate, methylation of C not given here) [compound 320125]
% Inhib. mouse p38α (mouse p38α mRNA): 67% | % Inhib. rat p38α (rat p38α mRNA): 63%

320126 (antisense AGGCATGCGCAAGAGCTTGG; sugars from the 5' end e5 d10 e5, all phosphorothioate, methylation of C not given here) [compound 320126]
% Inhib. mouse p38α (mouse p38α mRNA): 90% | % Inhib. rat p38α (rat p38α mRNA): 69%

320127 (antisense TGAGCAAAGTAGGCATGCGC; sugars from the 5' end e5 d10 e5, all phosphorothioate, methylation of C not given here) [compound 320127]
% Inhib. mouse p38α (mouse p38α mRNA): 73% | % Inhib. rat p38α (rat p38α mRNA): 56%

320128 (antisense TCAAAGGACTGGTCATAAGG; sugars from the 5' end e5 d10 e5, all phosphorothioate, methylation of C not given here) [compound 320128]
% Inhib. mouse p38α (mouse p38α mRNA): 79% | % Inhib. rat p38α (rat p38α mRNA): 37%

320129 (antisense CATTTCTTCTTGGTCAAGGG; sugars from the 5' end e5 d10 e5, all phosphorothioate, methylation of C not given here) [compound 320129]
% Inhib. mouse p38α (mouse p38α mRNA): 69% | % Inhib. rat p38α (rat p38α mRNA): 65%
